Measured values taken from patent US11427548B2 (Arvinas Operations, Inc., priority 2015, dated 2022).

Target: T1, Androgen Receptor (Homo sapiens, UniProt P10275)
T1 construct: endogenous in cells; host or cells: VCaP cells
T1 sequence (P10275 1-920): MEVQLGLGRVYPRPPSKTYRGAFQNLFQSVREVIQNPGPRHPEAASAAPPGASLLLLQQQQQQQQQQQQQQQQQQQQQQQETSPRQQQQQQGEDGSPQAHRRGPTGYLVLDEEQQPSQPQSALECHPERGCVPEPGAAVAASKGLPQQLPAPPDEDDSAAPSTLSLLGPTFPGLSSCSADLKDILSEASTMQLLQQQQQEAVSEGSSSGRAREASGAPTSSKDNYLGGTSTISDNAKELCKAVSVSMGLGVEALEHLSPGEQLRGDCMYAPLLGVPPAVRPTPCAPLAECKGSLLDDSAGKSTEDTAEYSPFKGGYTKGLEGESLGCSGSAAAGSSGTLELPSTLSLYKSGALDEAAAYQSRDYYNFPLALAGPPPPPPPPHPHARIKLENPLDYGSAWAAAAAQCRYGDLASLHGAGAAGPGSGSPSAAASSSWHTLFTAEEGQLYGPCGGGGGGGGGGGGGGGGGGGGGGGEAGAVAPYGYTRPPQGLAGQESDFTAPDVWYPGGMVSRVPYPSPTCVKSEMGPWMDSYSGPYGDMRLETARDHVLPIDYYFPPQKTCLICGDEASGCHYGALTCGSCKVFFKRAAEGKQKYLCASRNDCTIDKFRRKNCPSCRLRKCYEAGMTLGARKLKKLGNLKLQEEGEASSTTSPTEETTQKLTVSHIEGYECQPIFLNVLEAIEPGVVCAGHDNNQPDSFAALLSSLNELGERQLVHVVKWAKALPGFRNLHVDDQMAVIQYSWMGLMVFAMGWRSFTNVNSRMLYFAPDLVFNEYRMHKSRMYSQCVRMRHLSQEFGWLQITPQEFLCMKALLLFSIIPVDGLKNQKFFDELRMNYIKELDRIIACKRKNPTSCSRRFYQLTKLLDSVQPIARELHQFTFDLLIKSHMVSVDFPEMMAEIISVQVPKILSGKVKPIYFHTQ
Test: Androgen Receptor ELISA assay (PathScan AR ELISA) in VCaP cells: AR degradation, Dmax and DC50
Type: cell-based
Settings: VCaP cells, Table 35; for DC50: read-out: VCaP DC50; for Dmax: VCaP, read-out: VCaP Dmax (%)
How it was run: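 VCaP cells in phenol red-free RPMI with 5% charcoal-stripped FBS were grown at least 3 days, then given compound as 7 half-log doses in 0.1% DMSO with 0.1 nM R1881 for 24 h. Lysates went into a sandwich AR ELISA with TMB read at 450 nm.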

DC50 [µM]	Dmax [%]	Structure (SMILES)
< 0.05	> 71	Cc1ncsc1-c1ccc([C@H](C)NC(=O)[C@@H]2CC(OC(=O)[C@@H]3CCCN3)CN2C(=O)[C@@H](NC(=O)COCCCCCNc2ccc(C(=O)N[C@H]3C(C)(C)[C@H](Oc4ccc(C#N)c(Cl)c4)C3(C)C)cc2)C(C)(C)C)cc1 (some centres unmarked) [Example 461]
< 0.05	> 71	Cc1ncsc1-c1ccc([C@H](CN2CCCC2)NC(=O)[C@@H]2C[C@@H](O)CN2C(=O)[C@@H](NC(=O)COCCCCCOc2ccc(C(=O)N[C@H]3C(C)(C)[C@H](Oc4ccc(C#N)c(Cl)c4)C3(C)C)cc2)C(C)(C)C)cc1 [Example 465]
0.051 to 0.5	> 71	Cc1ncsc1-c1ccc([C@@H](CN2CCCC2)NC(=O)[C@@H]2C[C@@H](O)CN2C(=O)[C@@H](NC(=O)COCCCCCOc2ccc(C(=O)N[C@H]3C(C)(C)[C@H](Oc4ccc(C#N)c(Cl)c4)C3(C)C)cc2)C(C)(C)C)cc1 [Example 466]
< 0.05	> 71	Cc1ncsc1-c1ccc([C@H](C)NC(=O)[C@@H]2C[C@@H](OC(=O)C(C)C)CN2C(=O)[C@@H](NC(=O)COCCCCCNc2ccc(C(=O)N[C@H]3C(C)(C)[C@H](Oc4ccc(C#N)c(Cl)c4)C3(C)C)cc2)C(C)(C)C)cc1 [Example 468]
> 0.501	26 to 50	Cc1ncsc1-c1ccc([C@@H](CN(C)C)NC(=O)[C@@H]2C[C@@H](O)CN2C(=O)[C@@H](NC(=O)COCCCCCOc2ccc(C(=O)N[C@H]3C(C)(C)[C@H](Oc4ccc(C#N)c(Cl)c4)C3(C)C)cc2)C(C)(C)C)cc1 [Example 471]
< 0.05	> 71	Cc1ncsc1-c1ccc(CNC(=O)[C@@H]2C[C@@H](O)CN2C(=O)[C@@H](NC(=O)CS(=O)(=O)CCOc2ccc(-c3ccc(C(=O)N[C@H]4C(C)(C)[C@H](Oc5ccc(C#N)c(Cl)c5)C4(C)C)cc3)cc2)C(C)(C)C)cc1 [Example 472]
< 0.05	26 to 50	Cc1ncsc1-c1ccc([C@H](C)NC(=O)[C@@H]2C[C@@H](O)CN2C(=O)[C@@H](NC(=O)COCCCCCNc2ccc(C(=O)N(C)[C@H]3C(C)(C)[C@H](Oc4ccc(C#N)c(Cl)c4)C3(C)C)cc2)C(C)(C)C)cc1 [Example 473]
< 0.05	26 to 50	Cc1ncsc1-c1ccc([C@@H](CN)NC(=O)[C@@H]2C[C@@H](O)CN2C(=O)[C@@H](NC(=O)COCCCCCOc2ccc(C(=O)N[C@H]3C(C)(C)[C@H](Oc4ccc(C#N)c(Cl)c4)C3(C)C)cc2)C(C)(C)C)cc1 [Example 474]
< 0.05	> 71	Cc1ncsc1-c1ccc([C@H](CN)NC(=O)[C@@H]2C[C@@H](O)CN2C(=O)[C@@H](NC(=O)COCCCCCOc2ccc(C(=O)N[C@H]3C(C)(C)[C@H](Oc4ccc(C#N)c(Cl)c4)C3(C)C)cc2)C(C)(C)C)cc1 [Example 475]
< 0.05	> 71	Cc1ncsc1-c1ccc(CNC(=O)[C@@H]2C[C@@H](O)CN2C(=O)[C@@H](NC(=O)COCCCCCS(=O)(=O)c2ccc(C(=O)N[C@H]3C(C)(C)[C@H](Oc4ccc(C#N)c(Cl)c4)C3(C)C)cc2)C(C)(C)C)cc1 [Example 476]
	< 25	Cc1ncsc1-c1ccc(CNC(=O)[C@@H]2C[C@@H](O)CN2C(=O)[C@@H](NC(=O)COCCCOCCCCCOc2ccc(N3C(=S)N(c4ccccc4)C(=O)C3(C)C)cc2)C(C)(C)C)cc1 [Example 477]
0.051 to 0.5	26 to 50	Cc1ncsc1-c1ccc(CNC(=O)[C@@H]2C[C@@H](O)CN2C(=O)[C@@H](NC(=O)COCCCOCCCCCOc2ccc(N3C(=S)N(c4cccc(C(F)(F)F)c4)C(=O)C3(C)C)cc2)C(C)(C)C)cc1 [Example 478]
	26 to 50	Cc1ncsc1-c1ccc(CNC(=O)[C@@H]2C[C@@H](O)CN2C(=O)[C@@H](NC(=O)COCCCOCCCCCOc2ccc(N3C(=S)N(c4ccc(C#N)cc4)C(=O)C3(C)C)cc2)C(C)(C)C)cc1 [Example 479]
> 0.501	26 to 50	CC(C)(C)[C@H](NC(=O)CNCCCCCNc1ccc(C(=O)N[C@H]2C(C)(C)[C@H](Oc3ccc(C#N)c(Cl)c3)C2(C)C)cc1)C(=O)N1C[C@H](O)C[C@H]1C(=O)NCc1ccc(C#N)cc1 [Example 480]
> 0.501	< 25	Cc1ncsc1-c1ccc(CNC(=O)[C@@H]2C[C@H](O)CN2C(=O)[C@@H](NC(=O)COCCOc2ccc(-c3ccc(C(=O)N[C@H]4C(C)(C)[C@H](Oc5ccc(C#N)c(Cl)c5)C4(C)C)cc3)cc2)C(C)(C)C)cc1 [Example 481]
< 0.05	51 to 70	Cc1ncsc1-c1ccc([C@H](C)NC(=O)[C@@H]2C[C@@H](O)CN2C(=O)[C@@H](NC(=O)COCCCCCNc2ccc(C(=O)N[C@H]3C(C)(C)[C@H](Oc4ccc(C#N)c(Cl)c4)C3(C)C)nc2)C(C)(C)C)cc1 [Example 482]
< 0.05	> 71	Cc1ncsc1-c1ccc([C@H](C)NC(=O)[C@@H]2C[C@@H](O)CN2C(=O)[C@@H](NC(=O)CNCCNc2ccc(-c3ccc(C(=O)N[C@H]4C(C)(C)[C@H](Oc5ccc(C#N)c(Cl)c5)C4(C)C)cc3)cn2)C(C)(C)C)cc1 [Example 483]
< 0.05	51 to 70	Cc1ncsc1-c1ccc(CNC(=O)[C@@H]2C[C@@H](O)CN2C(=O)[C@@H](NC(=O)CNCCNc2ccc(-c3ccc(C(=O)N[C@H]4C(C)(C)[C@H](Oc5ccc(C#N)c(Cl)c5)C4(C)C)cc3)cn2)C(C)(C)C)cc1 [Example 484]
> 0.501	26 to 50	Cc1ncsc1-c1ccc([C@H](C)NC(=O)[C@@H]2C[C@@H](O)CN2C(=O)[C@@H](NC(=O)COCCCCCNc2ccc(C(=O)N[C@H]3C(C)(C)[C@H](Oc4ccc(C#N)c(Cl)c4)C3(C)C)c(F)c2)C(C)(C)C)cc1 [Example 495]
< 0.05	51 to 70	Cc1ncsc1-c1ccc([C@H](C)NC(=O)[C@@H]2C[C@@H](O)CN2C(=O)[C@@H](NC(=O)COCCCCCNc2ccc(C(=O)N[C@H]3C[C@H](Oc4ccc(C#N)c(Cl)c4)C3)cc2)C(C)(C)C)cc1 [Example 496]
< 0.05	51 to 70	Cc1ncsc1-c1ccc([C@H](C)NC(=O)[C@@H]2C[C@@H](O)CN2C(=O)[C@@H](NC(=O)COCCCCCNc2ccc(C(=O)N[C@H]3C(C)(C)[C@H](Oc4cnc(C#N)c(C(F)(F)F)c4)C3(C)C)cc2)C(C)(C)C)cc1 [Example 497]
< 0.05	> 71	CC(C)(C)[C@H](NC(=O)CNc1ccc(C#Cc2ccc(C(=O)N[C@H]3C(C)(C)[C@H](Oc4ccc(C#N)c(Cl)c4)C3(C)C)cc2)cn1)C(=O)N1C[C@H](O)C[C@H]1C(=O)NCc1ccc(C#N)cc1 [Example 498]
> 0.501	26 to 50	CC(C)(C)[C@H](NC(=O)COCCCCCNc1ccc(C(=O)N[C@H]2C(C)(C)[C@H](Oc3ccc(C#N)c(Cl)c3)C2(C)C)cc1)C(=O)N1C[C@H](O)C[C@H]1C(=O)NCc1ccc(C2=CCNCC2)cc1 [Example 499]
< 0.05	26 to 50	CC(C)(C)[C@H](NC(=O)CNCCNc1ccc(-c2ccc(C(=O)N[C@H]3C(C)(C)[C@H](Oc4ccc(C#N)c(Cl)c4)C3(C)C)cc2)cn1)C(=O)N1C[C@H](O)C[C@H]1C(=O)NCc1ccc(C#N)cc1 [Example 500]
< 0.05	51 to 70	CC(C)(C)[C@H](NC(=O)CNCCOc1ccc(-c2ccc(C(=O)N[C@H]3C(C)(C)[C@H](Oc4ccc(C#N)c(Cl)c4)C3(C)C)cc2)cc1)C(=O)N1C[C@H](O)C[C@H]1C(=O)NCc1ccc(C#N)cc1 [Example 501]
0.051 to 0.5	26 to 50	CC(C)(C)[C@H](NC(=O)COCCCCCNc1ccc(C(=O)N[C@H]2C(C)(C)[C@H](Oc3ccc(C#N)c(Cl)c3)C2(C)C)cc1)C(=O)N1C[C@H](O)C[C@H]1C(=O)NCc1ccc(-c2scnc2C(=O)O)cc1 [Example 502]
< 0.05	> 71	CC(C)(C)[C@H](NC(=O)COCCCCCNc1ccc(C(=O)N[C@H]2C(C)(C)[C@H](Oc3ccc(C#N)c(Cl)c3)C2(C)C)cc1)C(=O)N1C[C@H](O)C[C@H]1C(=O)NCc1ccc(-c2scnc2N)cc1 [Example 503]
< 0.05	51 to 70	CC(C)(C)[C@H](NC(=O)COCCCCCNc1ccc(C(=O)N[C@H]2C(C)(C)[C@H](Oc3ccc(C#N)c(Cl)c3)C2(C)C)cc1)C(=O)N1C[C@H](O)C[C@H]1C(=O)NCc1ccc(-c2ncns2)cc1 [Example 504]
< 0.05	26 to 50	CC(C)(C)[C@H](NC(=O)COCCCCCNc1ccc(C(=O)N[C@H]2C(C)(C)[C@H](Oc3ccc(C#N)c(Cl)c3)C2(C)C)cc1)C(=O)N1C[C@H](O)C[C@H]1C(=O)NCc1ccc(-n2cnnn2)cc1 [Example 505]
